According to ChEMBL document CHEMBL1125547, “Synthesis and excitatory amino acid pharmacology of a series of heterocyclic-fused quinoxalinones and quinazolinones” (J Med Chem, 1992):

Key:
[1] = biological target: T1, Glutamate receptor ionotropic, AMPA (Rattus norvegicus, UniProt P19490+P19491+P19492+P19493); test: Displacement of [3H]AMPA from Ionotropic glutamate receptor AMPA.; type: protein-complex assay
[2] = biological target: Glutamate receptor ionotropic, NMDA 1 (Rattus norvegicus, UniProt P35439); test: Displacement of [3H]glycine from glycine site on the NMDA receptor.
Glutamate NMDA receptor = test: Compound was tested for its ability to displace [3H]glycine from glycine site on the N-methyl-D-aspartate glutamate receptor; type: protein-complex assay
[3] = biological target: T1, Glutamate receptor ionotropic, AMPA; test: Compound was tested for its ability to displace [3H]-AMPA from AMPA receptor; type: protein-complex assay

Ki [1]	Ki [2]	Structure (SMILES)	Ki (Glutamate NMDA receptor)	Ki [3]
4.45 µM	> 10 µM	Cc1nnc2c(=O)[nH]c3cc(Cl)c(Cl)cc3n12		
> 10 µM	> 10 µM	O=c1[nH]c2cc(Cl)ccc2c2ccnn12		
> 10 µM	> 10 µM	O=[N+]([O-])c1ccc2c(c1)nc(O)c1nnnn12		
> 10 µM	> 10 µM	Oc1nc2cc(Cl)c(Cl)cc2n2c(C(F)(F)F)nnc12		
> 10 µM	> 10 µM	Oc1nc2cc(Cl)c(Cl)cc2n2c(-c3ccccc3)nnc12		
1.64 µM	0.21 µM	Oc1nc2cc(Cl)c(Cl)cc2nc1O [2,3-DIHYDROXY-6,7-DICHLOROQUINOXALINE]		
> 10 µM	> 10 µM	Oc1nc2cc(Cl)c(Cl)cc2c2ccnn12		
7.38 µM	1.26 µM	Oc1nc2cc(Cl)c(Cl)cc2n2ccnc12		
4.78 µM	4.58 µM	CCc1nnc2c(O)nc3cc(Cl)c(Cl)cc3n12		
4.69 µM	0.63 µM	Oc1nc2cc(Cl)c(Cl)cc2n2cnnc12		
> 10 µM	> 10 µM	O=c1[nH]c2cc(F)c(F)cc2n2cnnc12		
		O=c1[nH]c2cc([N+](=O)[O-])c([N+](=O)[O-])cc2[nH]c1=O [DNQX]	0.39 µM	
		O=[N+]([O-])c1cc2nc(O)c3nnnn3c2cc1[N+](=O)[O-]	> 10 µM	> 10 µM
3.24 µM	2.85 µM	Oc1nc2cc(Cl)cc(Cl)c2n2cnnc12		
		O=[N+]([O-])c1cc2nc(O)c3nncn3c2cc1[N+](=O)[O-]	5.12 µM	5.49 µM
> 10 µM	> 10 µM	Oc1nc2cc(Cl)c(Cl)cc2n2nnnc12		
> 10 µM	> 10 µM	O=c1[nH]c2ccc([N+](=O)[O-])cc2n2nnnc12		
1.71 µM	1.48 µM	CCCCc1nnc2c(=O)[nH]c3cc(Cl)c(Cl)cc3n12		
0.99 µM	7.35 µM	O=[N+]([O-])c1ccc2c(c1)nc(O)c1nncn12		

Structure (SMILES)	Ki [1]	Ki [2]	Ki (Glutamate NMDA receptor)	Ki [3]
CCCc1nnc2c(O)nc3cc(Cl)c(Cl)cc3n12		3.92 µM		
